Experimental data taken from ChEMBL document CHEMBL1201862, “PubChem BioAssay data set” (2004).
Counter-ions that a name gives are not always drawn.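 Compound exposure: 48 hours, 5 concentrations, 96-well plates. Abbreviation: GI50, concentration required for 50% inhibition of growth.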 Activity calls are given as the source filed them. No stated cut-off is given here; in the data, active = GI50 up to about 1.1 µM and inactive = higher.

What was measured:
Assay in all cases: NCI anticancer screen, dose series, 48 h
RXF 393 = tested on: RXF 393
HCT-15 = tested on: HCT-15
IGROV-1 = tested on: IGROV-1
NCI-H23 = tested on: NCI-H23
SF-268 = tested on: SF-268
SN12C = tested on: SN12C
SK-OV-3 = tested on: SK-OV-3
NCI-H460 = tested on: NCI-H460
K562 = tested on: K562
Malme-3M = tested on: Malme-3M
UACC-257 = tested on: UACC-257
DLD-1 = tested on: DLD-1
HCC 2998 = tested on: HCC 2998
HCT-116 = tested on: HCT-116
NCI-H522 = tested on: NCI-H522
T47D = tested on: T47D
NCI/ADR-RES = tested on: NCI/ADR-RES
PC-3 = tested on: PC-3
Hs-578T = tested on: Hs-578T
MDA-MB-435 = tested on: MDA-MB-435

SMILES	GI50 (RXF 393)	GI50 (HCT-15) [µM]	GI50 (IGROV-1)	GI50 (NCI-H23)	GI50 (SF-268)	GI50 (SN12C)	GI50 (SK-OV-3)	GI50 (NCI-H460)	GI50 (K562)	GI50 (Malme-3M)	GI50 (UACC-257)	GI50 (DLD-1)	GI50 (HCC 2998)	GI50 (HCT-116)	GI50 (NCI-H522)	GI50 (T47D)	GI50 (NCI/ADR-RES)	GI50 (PC-3)	GI50 (Hs-578T)	GI50 (MDA-MB-435)
O=C(/C=C/c1ccccc1)/C=C/c1ccccc1O	20.8 µM (inactive)	15.9	18.7 µM (inactive)	24.9 µM (inactive)	32.9 µM (inactive)	16.2 µM (inactive)	19.1 µM (inactive)	19.1 µM (inactive)	16.4 µM (inactive)	< 0.01 µM (active)	20.8 µM (inactive)	18 µM (inactive)	12.5 µM (inactive)	15.1 µM (inactive)	15.5 µM (inactive)					
CCN(CC)c1c(C(=O)/C=C/c2ccc(OC)cc2)c(-c2ccccc2)nn(C)c1=O	10.6 µM (inactive)		19.2 µM (inactive)	10.4 µM (inactive)	6.52 µM (inactive)	21 µM (inactive)	36 µM (inactive)	7.83 µM (inactive)	9.06 µM (inactive)	15.1 µM (inactive)	19.6 µM (inactive)	12.1 µM (inactive)								
COC(=O)C1=C(c2cc(OC)c(OC)c(OC)c2)OC(c2cc(OC)c(OC)c(OC)c2)C1COC(C)=O (centres undefined)	40.6 µM (inactive)	26.9	54.1 µM (inactive)	33.7 µM (inactive)	> 100 µM (inactive)	85.1 µM (inactive)	44.8 µM (inactive)	36.6 µM (inactive)	24 µM (inactive)	> 100 µM (inactive)	95.7 µM (inactive)	26.2 µM (inactive)	50.9 µM (inactive)	30.4 µM (inactive)	16.7 µM (inactive)					
Oc1ncnc2c1CCCN2	> 100 µM (inactive)	> 100	> 100 µM (inactive)	> 100 µM (inactive)	> 100 µM (inactive)	> 100 µM (inactive)	> 100 µM (inactive)		> 100 µM (inactive)	> 100 µM (inactive)	> 100 µM (inactive)	> 100 µM (inactive)	> 100 µM (inactive)	> 100 µM (inactive)	> 100 µM (inactive)					
NNC(=S)N/N=C(\c1nc2ccc(Cl)cc2nc1O)C(O)c1ccc(Cl)cc1Cl (centres undefined)	> 100 µM (inactive)	> 100	> 100 µM (inactive)	> 100 µM (inactive)	> 100 µM (inactive)	> 100 µM (inactive)	> 100 µM (inactive)	> 100 µM (inactive)	> 100 µM (inactive)	> 100 µM (inactive)	> 100 µM (inactive)	> 100 µM (inactive)		> 100 µM (inactive)	> 100 µM (inactive)					
CC1=C(/C=C/Cl)CC(Cl)C(C)(Cl)C1 (centres undefined)	10.6 µM (inactive)	> 100	> 100 µM (inactive)	> 100 µM (inactive)	> 100 µM (inactive)	> 100 µM (inactive)	> 100 µM (inactive)	> 100 µM (inactive)	> 100 µM (inactive)	> 100 µM (inactive)	> 100 µM (inactive)		> 100 µM (inactive)	> 100 µM (inactive)	91.2 µM (inactive)	> 100 µM (inactive)	> 100 µM (inactive)	> 100 µM (inactive)	> 100 µM (inactive)	> 100 µM (inactive)
CCOC(=O)c1ccc(/N=c2\oc3ccc(OC)cc3cc2-c2nc3ccccc3[nH]2)cc1	40.6 µM (inactive)	> 100	> 100 µM (inactive)	10.4 µM (inactive)	> 100 µM (inactive)	> 100 µM (inactive)	73.8 µM (inactive)	> 100 µM (inactive)	72.8 µM (inactive)	> 100 µM (inactive)	> 100 µM (inactive)		86.5 µM (inactive)	> 100 µM (inactive)	71.6 µM (inactive)	> 100 µM (inactive)	> 100 µM (inactive)	> 100 µM (inactive)	79.8 µM (inactive)	30.5 µM (inactive)
O=C(O)CN(c1ccc(Cl)cc1)S(=O)(=O)c1ccccc1	> 100 µM (inactive)	> 100	> 100 µM (inactive)	> 100 µM (inactive)	> 100 µM (inactive)	> 100 µM (inactive)	> 100 µM (inactive)	> 100 µM (inactive)	> 100 µM (inactive)	> 100 µM (inactive)	> 100 µM (inactive)	> 100 µM (inactive)			> 100 µM (inactive)					
CN1CC(=O)N(C)c2ncn(Cc3ccccc3)c2C1=O	> 100 µM (inactive)	> 100	> 100 µM (inactive)	> 100 µM (inactive)	12.2 µM (inactive)	> 100 µM (inactive)	> 100 µM (inactive)	> 100 µM (inactive)	> 100 µM (inactive)	> 100 µM (inactive)		> 100 µM (inactive)	> 100 µM (inactive)							
CCCn1c(=O)c2nn3c(=O)n(CCC)c(=O)c3nn2c1=O	> 100 µM (inactive)	> 100	> 100 µM (inactive)	> 100 µM (inactive)	> 100 µM (inactive)	> 100 µM (inactive)	> 100 µM (inactive)	> 100 µM (inactive)	> 100 µM (inactive)	> 100 µM (inactive)	> 100 µM (inactive)		> 100 µM (inactive)	> 100 µM (inactive)	> 100 µM (inactive)	> 100 µM (inactive)	> 100 µM (inactive)	> 100 µM (inactive)	> 100 µM (inactive)	> 100 µM (inactive)
CC(=O)c1cccc(Nc2c3ccccc3nc3occc23)c1	0.09 µM (active)	3.99	2.54 µM (inactive)	3.01 µM (inactive)	16.1 µM (inactive)	8.38 µM (inactive)	10.6 µM (inactive)	22.8 µM (inactive)	3.26 µM (inactive)	4.9 µM (inactive)	11.3 µM (inactive)		5.21 µM (inactive)	3.5 µM (inactive)	1.54 µM (inactive)	5.14 µM (inactive)	2.51 µM (inactive)	13 µM (inactive)	5.15 µM (inactive)	1.07 µM (active)
CC(Oc1ccccc1Cl)C(=O)NN1C(=O)CC(=O)N(c2ccc(Cl)cc2)C1=S (centres undefined)	30 µM (inactive)	36.6	50.1 µM (inactive)	38 µM (inactive)	67.1 µM (inactive)	35.2 µM (inactive)	59 µM (inactive)	39.3 µM (inactive)	13.1 µM (inactive)	> 100 µM (inactive)	45.1 µM (inactive)		50.9 µM (inactive)	32.1 µM (inactive)	23.3 µM (inactive)	34.6 µM (inactive)	36.1 µM (inactive)	38.1 µM (inactive)	49.8 µM (inactive)	61 µM (inactive)
Clc1cc(OCc2nn3c(Cc4ccccc4)nnc3s2)ccc1OCc1nn2c(Cc3ccccc3)nnc2s1	27.7 µM (inactive)	47.8	30.6 µM (inactive)	38.9 µM (inactive)	29.8 µM (inactive)	45.3 µM (inactive)	26.7 µM (inactive)	65.8 µM (inactive)	95.9 µM (inactive)	37.5 µM (inactive)	> 100 µM (inactive)		44.1 µM (inactive)	53.5 µM (inactive)	50.1 µM (inactive)	20.9 µM (inactive)	59.3 µM (inactive)	48.4 µM (inactive)	48.9 µM (inactive)	51.6 µM (inactive)
CN(C)CCC=C1c2ccccc2C=Cc2ccccc21 [CYCLOBENZAPRINE HYDROCHLORIDE]	14.5 µM (inactive)	17.7	16.7 µM (inactive)	18.7 µM (inactive)	15.8 µM (inactive)	16.9 µM (inactive)	16.1 µM (inactive)	15.4 µM (inactive)	18.5 µM (inactive)	16.9 µM (inactive)	14.8 µM (inactive)		5.4 µM (inactive)	15 µM (inactive)	17.9 µM (inactive)	19.5 µM (inactive)	16.3 µM (inactive)	16.6 µM (inactive)	18.8 µM (inactive)	16.7 µM (inactive)
COc1ccc(C2SC(=N)Nc3c2c(C)nn3C(=O)c2ccc(Cl)cc2)cc1OC (centres undefined)	> 10 µM (inactive)	> 10	> 10 µM (inactive)	> 10 µM (inactive)	> 10 µM (inactive)	> 10 µM (inactive)	> 10 µM (inactive)	> 10 µM (inactive)	> 10 µM (inactive)	> 10 µM (inactive)	> 10 µM (inactive)		> 10 µM (inactive)	> 10 µM (inactive)	> 10 µM (inactive)	> 10 µM (inactive)	> 10 µM (inactive)	> 10 µM (inactive)	> 10 µM (inactive)	> 10 µM (inactive)
CC1=C(C(=O)Nc2cccc(C(F)(F)F)c2)C(c2ccccc2F)C(C(=O)Nc2cccc(C(F)(F)F)c2)=C(C)N1	3.57 µM (inactive)		11.3 µM (inactive)	4.59 µM (inactive)	6.52 µM (inactive)	7.96 µM (inactive)	10.4 µM (inactive)	4.23 µM (inactive)	3.96 µM (inactive)	7.08 µM (inactive)	8.65 µM (inactive)	6.21 µM (inactive)	3.31 µM (inactive)	3.63 µM (inactive)	4.79 µM (inactive)					
CC(=O)OCC1OC(OC(C)=O)C(Nc2ncc(-c3ccc(C)cc3)s2)C(OC(C)=O)C1OC(C)=O (centres undefined)	16.1 µM (inactive)	22.5	17.3 µM (inactive)	12 µM (inactive)	16.5 µM (inactive)	18.2 µM (inactive)	44.1 µM (inactive)	18.5 µM (inactive)	15.7 µM (inactive)	21.2 µM (inactive)	20.1 µM (inactive)		29.7 µM (inactive)	16.4 µM (inactive)	15.7 µM (inactive)	15.2 µM (inactive)	30.6 µM (inactive)	15.9 µM (inactive)	22.5 µM (inactive)	15.8 µM (inactive)
